Test results reported in patent publication US10034886B2, “GLP-1 receptor modulators” (Celgene International II SÀRL, priority 2014, dated 2018).

These compounds were tested against T1, GLP-1R (Homo sapiens, UniProt P43220) (assay: EC20 GLP-1(9-36) PAM cAMP assay: dose response of compound in the presence of fixed concentration of GLP-1(9-36)). Details: GLP-1R CRE-bla CHO-K1 cells, compound dose response with fixed concentration of GLP-1(9-36), read-out: EC20 GLP-1(9-36) PAM EC50.
T1 construct: host or cells: GLP-1R CRE-bla CHO-K1 cells
T1 sequence (P43220 24-463): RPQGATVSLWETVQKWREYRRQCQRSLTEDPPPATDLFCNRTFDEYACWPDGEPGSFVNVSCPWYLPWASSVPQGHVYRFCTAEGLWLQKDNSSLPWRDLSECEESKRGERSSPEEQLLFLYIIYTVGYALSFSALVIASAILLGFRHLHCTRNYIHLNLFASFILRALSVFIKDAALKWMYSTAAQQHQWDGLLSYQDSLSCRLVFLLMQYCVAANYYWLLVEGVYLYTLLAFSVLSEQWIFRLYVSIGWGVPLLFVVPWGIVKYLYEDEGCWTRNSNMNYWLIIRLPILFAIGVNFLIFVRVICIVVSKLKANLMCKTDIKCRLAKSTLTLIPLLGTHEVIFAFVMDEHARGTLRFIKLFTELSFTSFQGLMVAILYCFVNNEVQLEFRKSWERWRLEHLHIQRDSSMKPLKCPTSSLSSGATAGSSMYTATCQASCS
T1 sequence (P01275 100-127 partner limits assumed): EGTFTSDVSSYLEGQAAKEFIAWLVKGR
Type: cell-based
Outline: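 GLP-1R CRE-bla CHO-K1 cells treated 30 min at 37 °C with 12-point compound dose response plus fixed EC20 GLP-1(9-36), with IBMX, in HBSS/HEPES/0.1% BSA pH 7.4. Total cAMP measured by luminescent detection against standard curve; EC50 and Emax from non-linear regression.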

| Compound | EC50 [nM] |
| --- | --- |
| CCCC(C)Oc1ccc(-c2ccc(-c3cnc(-c4ccc(C[C@H](NC(=O)c5ccc(C(C)(C)C)s5)C(=O)N[C@H](C)C(=O)O)cc4)nc3)cc2)cc1 (stereo partly drawn) [Compound 1296] | 2500 to 5000 |
| CCC[C@H]1CC[C@H](C2CCN(c3cnc(-c4ccc(C[C@H](NC(=O)c5ccc(C(C)(C)C)s5)C(=O)NC5(C(=O)O)CC5)cc4)nc3)CC2)CC1 [Compound 1453] | < 800 |
| CCCCC1CCC(C2CCN(c3cnc(-c4ccc(C[C@H](NC(=O)c5ccc(C(C)(C)C)s5)C(=O)N5CC(C(=O)O)C5)cc4)nc3)CC2)CC1 (stereo partly drawn) [Compound 1428] | < 800 |
| CCC[C@H]1CC[C@H](C2CCN(c3cnc(-c4ccc(C[C@H](NC(=O)c5ccc(C(C)(C)C)s5)C(=O)NC(CCCOC)C(=O)O)cc4)nc3)CC2)CC1 (stereo partly drawn) [Compound 1458] | < 800 |
| Cc1ccc(-c2ccc(-c3cnc(-c4ccc(C[C@H](NC(=O)c5ccc(C(C)(C)C)s5)C(=O)N5CC(C(=O)O)C5)cc4)nc3)c(F)c2)cc1 [Compound 1207] | < 800 |

Second part, the compound after the results:

| EC50 [nM] | Compound |
| --- | --- |
| < 800 | CC(C)Cc1ccc(-c2ccc(-c3cnc(-c4ccc(C[C@H](NC(=O)c5ccc(C(C)(C)C)s5)C(=O)N5CC(C(=O)O)C5)cc4)nc3)c(F)c2)cc1 [Compound 1221] |
| 2500 to 5000 | CCCC1CCN(C(=O)C(C)(C)CNc2cnc(-c3ccc(C[C@H](NC(=O)c4ccc(C(C)(C)C)s4)C(=O)N4CC(C(=O)O)C4)cc3)nc2)CC1 [Compound 1497] |

Same assay, conditions: dose response of compound in presence of fixed concentration of GLP-1(9-36), GLP-1R CRE-bla CHO-K1 cells, read-out: EC20 GLP-1(9-36) PAM EC50

| Compound | EC50 [nM] |
| --- | --- |
| CCCCCCCOc1ccc(-c2cnc(-c3ccc(CC(NC(=O)c4ccc(C(C)(C)C)s4)C(=O)NCCCCC(=O)O)cc3)nc2)cc1 (stereo not drawn) [Compound 459] | 800 to 2500 |
| CCCCCCCOc1ccc(-c2cnc(-c3ccc(C[C@H](NC(=O)c4ccc(C(C)(C)C)s4)C(=O)N4CC(C(=O)O)C4)cc3)nc2)cc1C [Compound 776] | < 800 |
| C[C@@H](NC(=O)[C@H](Cc1ccc(-c2ncc(-c3ccc(-c4ccc(OC(F)(F)F)cc4)cc3F)cn2)cc1)NC(=O)c1ccc(C(C)(C)C)s1)C(=O)O [Compound 1171] | < 800 |
| C[C@@H](NC(=O)[C@H](Cc1ccc(-c2ncc(-c3ccc(N4CCCCC4)cc3)cn2)cc1)NC(=O)c1ccc(C(C)(C)C)s1)C(=O)O [Compound 740] | 2500 to 5000 |
| CCCCCCCOc1ccc(-c2cnc(-c3ccc(C[C@H](NC(=O)c4ccc(C(C)(C)C)s4)C(=O)N4CC(CCN)C4)cc3)nc2)cc1 [Compound 989] | 800 to 2500 |
| CCCCCCCOc1ccc(-c2cnc(-c3ccc(C[C@H](NC(=O)c4ccc(C(C)C)cc4)C(=O)N4CCC[C@H]4C(=O)O)cc3)nc2)cc1 [Compound 1074] | 800 to 2500 |
| CCCCCCCOc1ccc(-c2cnc(-c3ccc(C[C@H](NC(=O)c4ccc(C(C)(C)C)cc4)C(=O)NCC(Cc4ccc(O)cc4)C(=O)O)cc3)nc2)cc1 (stereo partly drawn) [Compound 558] | < 800 |
| CC(C)(C)CCOc1ccc(-c2cnc(-c3ccc(C[C@H](NC(=O)c4ccc(C(C)(C)C)s4)C(=O)NC(C(=O)O)C(O)c4ccccc4)cc3)nc2)cc1 (stereo partly drawn) [Compound 941] | 2500 to 5000 |
| CC(C)(C)c1ccc(C(=O)N[C@@H](Cc2ccc(-c3ncc(-c4ccc(C#Cc5ccccc5)cc4)cn3)cc2)C(=O)NCCC(=O)O)cc1 [Compound 689] | 2500 to 5000 |

Now from value to compound:

| EC50 [nM] | Compound |
| --- | --- |
| 2500 to 5000 | CCCCOCCOc1ccc(-c2cnc(-c3ccc(C[C@H](NC(=O)c4ccc(C(C)(C)C)cc4)C(=O)NCCC(=O)O)cc3)nc2)cc1 [Compound 457] |
| 5000 to 10000 | CCCCCCCOc1ccc(-c2cnc(-c3ccc(C[C@H](NC(=O)c4ccc(C(C)(C)C)s4)C(=O)NC(C(=O)O)[C@H](C)c4ccccc4)cc3)nc2)cc1 (stereo partly drawn) [Compound 896] |
| 800 to 2500 | CCCCCCCOc1ccc(-c2cnc(-c3ccc(C[C@H](NC(=O)c4ccc(CC)s4)C(=O)NC(C(=O)O)C(O)c4ccccc4)cc3)nc2)cc1 (stereo partly drawn) [Compound 957] |
| 800 to 2500 | Cc1ccc(/C=C/c2cnc(-c3ccc(C[C@H](NC(=O)c4ccc(C(C)(C)C)s4)C(=O)N4CC(C(=O)O)C4)cc3)nc2)cc1 [Compound 1091] |
| 800 to 2500 | CCCCOc1ccc(-c2cnc(-c3ccc(C[C@H](NC(=O)c4ccc(C(C)(C)C)s4)C(=O)N[C@H](C)C(=O)O)cc3)nc2)cc1 [Compound 733] |
